Assays:
Format in all cases: in vivo
[1] = system: velvetleaf (Abutilon theophrasti, ABUTH); assay: Post-emerge test, greenhouse herbicide activity screening; settings: phytotoxicity rating 0-100 (0 no damage, 100 complete death), 14 days after application
In short: (§1)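 Fourteen days after spraying, crop and weed injury was graded visually from 0, no effect, to 100, every plant dead. Test substances were dissolved in acetone and applied at 15–1000 g ai/ha with a flat-fan nozzle. Application was either pre-emergence, one day after sowing, or post-emergence at the 2–3 leaf stage.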

[2] = system: green foxtail (Setaria viridis, SETVI); assay: as above; settings: phytotoxicity rating 0-100 (0 no damage, 100 complete death), 14 days after application
In short: as §1

[3] = system: ivyleaf morningglory (Ipomoea hederacea, IPOHE); assay: as above; settings: phytotoxicity rating 0-100 (0 no damage, 100 complete death), 14 days after application
In short: as §1

[4] = system: common ragweed (Ambrosia artemisizfolia L., AMBEL); assay: as above; settings: phytotoxicity rating 0-100 (0 no damage, 100 complete death), 14 days after application
In short: as §1

[5] = system: redroot pigweed (Amaranthus retroflexus, AMARE); assay: as above; settings: phytotoxicity rating 0-100 (0 no damage, 100 complete death), 14 days after application
In short: as §1

[6] = system: johnsongrass (Sorghum halepense, SORHA); assay: as above; settings: phytotoxicity rating 0-100 (0 no damage, 100 complete death), 14 days after application
In short: as §1

[7] = system: large crabgrass (Digitaria sanguinalis, DIGSA); assay: as above; settings: phytotoxicity rating 0-100 (0 no damage, 100 complete death), 14 days after application
In short: as §1

[8] = system: lambsquarters (Chenopodium album, CHEAL); assay: as above; settings: phytotoxicity rating 0-100 (0 no damage, 100 complete death), 14 days after application
In short: as §1

[9] = system: sicklepod (Cassia obtusifolia, CASOB); assay: as above; settings: phytotoxicity rating 0-100 (0 no damage, 100 complete death), 14 days after application
In short: as §1

[10] = system: barnyardgrass (Echinochloa crus-galli, ECHCG); assay: as above; settings: phytotoxicity rating 0-100 (0 no damage, 100 complete death), 14 days after application
In short: as §1

[11] = system: upland rice (Oryza sp., var. Tebonnet, RICE); assay: Post-emerge test, crop safety; settings: phytotoxicity rating 0-100 (0 no damage, 100 complete death), 14 days after application
In short: (§2)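 Sandy loam pots; pre-emerge: sown 1 d pre-spray, surface-watered after, then bottom-watered. Post-emerge: sown 8–21 d before, 2–3 leaf stage, + 0.25% v/v NIS, bottom-watered. Acetone, 187 l/ha track spray, 15–1000 g ai/ha. 0–100 injury score, day 14.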

[12] = system: field corn (Zea mays L., var. Dekalb 535, CORN); assay: Post-emerge test, crop safety; settings: phytotoxicity rating 0-100 (0 no damage, 100 complete death), 14 days after application
In short: as §2

[13] = system: velvetleaf (Abutilon theophrasti, ABUTH); assay: Pre-emerge test, greenhouse herbicide activity screening; settings: pre-emerge, rated 14 days after application, 0 = no damage, 100 = complete death
In short: as §2

[14] = system: green foxtail (Setaria viridis, SETVI); assay: as above; settings: pre-emerge, rated 14 days after application, 0 = no damage, 100 = complete death
In short: as §2

[15] = system: ivyleaf morningglory (Ipomoea hederacea, IPOHE); assay: as above; settings: pre-emerge, rated 14 days after application, 0 = no damage, 100 = complete death
In short: as §2

[16] = system: common ragweed (Ambrosia artemisizfolia L., AMBEL); assay: as above; settings: pre-emerge, rated 14 days after application, 0 = no damage, 100 = complete death
In short: as §2

[17] = system: johnsongrass (Sorghum halepense, SORHA); assay: as above; settings: pre-emerge, rated 14 days after application, 0 = no damage, 100 = complete death
In short: as §2

[18] = system: large crabgrass (Digitaria sanguinalis, DIGSA); assay: as above; settings: pre-emerge, rated 14 days after application, 0 = no damage, 100 = complete death
In short: as §2

[19] = system: lambsquarters (Chenopodium album, CHEAL); assay: as above; settings: pre-emerge, rated 14 days after application, 0 = no damage, 100 = complete death
In short: as §2

[20] = system: sicklepod (Cassia obtusifolia, CASOB); assay: as above; settings: pre-emerge, rated 14 days after application, 0 = no damage, 100 = complete death
In short: as §2

[21] = system: barnyardgrass (Echinochloa crus-galli, ECHCG); assay: as above; settings: pre-emerge, rated 14 days after application, 0 = no damage, 100 = complete death
In short: as §2

[22] = system: upland rice (Oryza sp., var. Tebonnet, RICE); assay: Pre-emerge test, crop safety; settings: pre-emerge, rated 14 days after application, 0 = no damage, 100 = complete death
In short: (§3)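 Plants grown in 10 cm pots of sandy loam mix received acetone-dissolved compounds through a moving flat-fan nozzle. Doses ranged from 15 to 1000 g ai/ha. Pre-emerge pots were seeded one day earlier, post-emerge pots 8–21 days earlier. Fourteen days on, each pot was graded 0–100 for damage.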

[23] = system: field corn (Zea mays L., var. Dekalb 535, CORN); assay: Pre-emerge test, crop safety; settings: pre-emerge, rated 14 days after application, 0 = no damage, 100 = complete death
In short: as §3

[24] = system: redroot pigweed (Amaranthus retroflexus, AMARE); assay: Pre-emerge test, greenhouse herbicide activity screening; settings: pre-emerge, rated 14 days after application, 0 = no damage, 100 = complete death
In short: as §2

SMILES: COc1c(Cl)cc(F)c(-n2c(=O)cc(C(F)(F)F)n(C)c2=O)c1N(C)C [Compound 1-11, 3-(4-chloro-2-dimehtylainino-6-fluoro-3-methoxyphenyl)-1-methyl-6-trifluoromethyl-2,4(1H, 3H)-pyrimidinedione]
- Post-emerge Herbicidal Activity ABUTH ([1]; 63 g ai/ha): 70
- Post-emerge Herbicidal Activity ABUTH ([1]; 250 g ai/ha): 100
- Post-emerge Herbicidal Activity SETVI ([2]; 63 g ai/ha): 0
- Post-emerge Herbicidal Activity SETVI ([2]; 250 g ai/ha): 50
- Post-emerge Herbicidal Activity IPOHE ([3]; 63 g ai/ha): 40
- Post-emerge Herbicidal Activity IPOHE ([3]; 250 g ai/ha): 70
- Post-emerge Herbicidal Activity AMBEL ([4]; 63 g ai/ha): 10
- Post-emerge Herbicidal Activity AMBEL ([4]; 250 g ai/ha): 10
- Post-emerge Herbicidal Activity AMARE ([5]; 63 g ai/ha): 40
- Post-emerge Herbicidal Activity AMARE ([5]; 250 g ai/ha): 60
- Post-emerge Herbicidal Activity SORHA ([6]; 63 g ai/ha): 0
- Post-emerge Herbicidal Activity SORHA ([6]; 250 g ai/ha): 0
- Post-emerge Herbicidal Activity DIGSA ([7]; 63 g ai/ha): 0
- Post-emerge Herbicidal Activity DIGSA ([7]; 250 g ai/ha): 0
- Post-emerge Herbicidal Activity CHEAL ([8]; 63 g ai/ha): 50
- Post-emerge Herbicidal Activity CHEAL ([8]; 250 g ai/ha): 95
- Post-emerge Herbicidal Activity CASOB ([9]; 63 g ai/ha): 0
- Post-emerge Herbicidal Activity CASOB ([9]; 250 g ai/ha): 0
- Post-emerge Herbicidal Activity ECHCG ([10]; 63 g ai/ha): 0
- Post-emerge Herbicidal Activity ECHCG ([10]; 250 g ai/ha): 0
- Post-emerge Herbicidal Activity RICE (crop damage) ([11]; 63 g ai/ha): 0
- Post-emerge Herbicidal Activity RICE (crop damage) ([11]; 250 g ai/ha): 0
- Post-emerge Herbicidal Activity CORN (crop damage) ([12]; 63 g ai/ha): 0
- Post-emerge Herbicidal Activity CORN (crop damage) ([12]; 250 g ai/ha): 0
- Pre-emerge Herbicidal Activity ABUTH (phytotoxicity rating, scale 0-100) ([13]; 63 g ai/ha): 100
- Pre-emerge Herbicidal Activity ABUTH (phytotoxicity rating, scale 0-100) ([13]; 250 g ai/ha): 100
- Pre-emerge Herbicidal Activity SETVI (phytotoxicity rating, scale 0-100) ([14]; 63 g ai/ha): 80
- Pre-emerge Herbicidal Activity SETVI (phytotoxicity rating, scale 0-100) ([14]; 250 g ai/ha): 100
- Pre-emerge Herbicidal Activity IPOHE (phytotoxicity rating, scale 0-100) ([15]; 63 g ai/ha): 20
- Pre-emerge Herbicidal Activity IPOHE (phytotoxicity rating, scale 0-100) ([15]; 250 g ai/ha): 90
- Pre-emerge Herbicidal Activity AMBEL (phytotoxicity rating, scale 0-100) ([16]; 63 g ai/ha): 50
- Pre-emerge Herbicidal Activity AMBEL (phytotoxicity rating, scale 0-100) ([16]; 250 g ai/ha): 100
- Pre-emerge Herbicidal Activity SORHA (phytotoxicity rating, scale 0-100) ([17]; 63 g ai/ha): 90
- Pre-emerge Herbicidal Activity SORHA (phytotoxicity rating, scale 0-100) ([17]; 250 g ai/ha): 98
- Pre-emerge Herbicidal Activity DIGSA (phytotoxicity rating, scale 0-100) ([18]; 63 g ai/ha): 90
- Pre-emerge Herbicidal Activity DIGSA (phytotoxicity rating, scale 0-100) ([18]; 250 g ai/ha): 100
- Pre-emerge Herbicidal Activity CHEAL (phytotoxicity rating, scale 0-100) ([19]; 63 g ai/ha): 100
- Pre-emerge Herbicidal Activity CHEAL (phytotoxicity rating, scale 0-100) ([19]; 250 g ai/ha): 100
- Pre-emerge Herbicidal Activity CASOB (phytotoxicity rating, scale 0-100) ([20]; 63 g ai/ha): 20
- Pre-emerge Herbicidal Activity CASOB (phytotoxicity rating, scale 0-100) ([20]; 250 g ai/ha): 60
- Pre-emerge Herbicidal Activity ECHCG (phytotoxicity rating, scale 0-100) ([21]; 63 g ai/ha): 0
- Pre-emerge Herbicidal Activity ECHCG (phytotoxicity rating, scale 0-100) ([21]; 250 g ai/ha): 95
- Pre-emerge crop damage RICE (phytotoxicity rating, scale 0-100) ([22]; 63 g ai/ha): 20
- Pre-emerge crop damage RICE (phytotoxicity rating, scale 0-100) ([22]; 250 g ai/ha): 70
- Pre-emerge crop damage CORN (phytotoxicity rating, scale 0-100) ([23]; 63 g ai/ha): 0
- Pre-emerge crop damage CORN (phytotoxicity rating, scale 0-100) ([23]; 250 g ai/ha): 60
- Pre-emerge Herbicidal Activity AMARE (phytotoxicity rating, scale 0-100) ([24]; 63 g ai/ha): 100
- Pre-emerge Herbicidal Activity AMARE (phytotoxicity rating, scale 0-100) ([24]; 250 g ai/ha): 100

From patent publication US6355799B1, “Substituted benzene compounds, process for their preparation, and herbicidal and defoliant compositions containing them” (ISK Americas Incorporated, priority 1997, dated 2002)
